Results on 1 molecule are retold here after ChEMBL document CHEMBL5126603, “Discovery of Clinical Candidate CHF-6366: A Novel Super-soft Dual Pharmacology Muscarinic Antagonist and β2 Agonist (MABA) for the Inhaled Treatment of Respiratory Diseases” (J Med Chem, 2022).

Series [1] can be described thus: In vivo agonist activity at beta-2 adrenoceptor in Dunkin-Hartley guinea pig trachea assessed as inhibition of histamine-induced bronchoconstriction at 3 nmol/Kg, IT(Intratracheal) measured after 24 hr by Konzett-Roessler methodology relative to control. The class given is functional. The note with it: Cavia porcellus.
The nature of series [2]: Apparent permeability across apical to basolateral side in human Caco-2 cells at 10 uM and measured after 2 hrs by LC-MS/MS analysis. The series is classed as ADME, cell-based.
A short description of series [3]: Protein binding in Dunkin-Hartley guinea pig plasma assessed as unbound fraction at 5 uM measured after 4 hrs by LC-MS/MS analysis. The class given is ADME, cell-free, Cavia porcellus.
Series [4] in a line: Metabolic stability in Dunkin-Hartley guinea pig lung S9 fraction assessed as half life at 1 uM measured after 0 to 60 mins in presence of NADPH by LC-MS/MS analysis. The series is classed as ADME, subcellular, Cavia porcellus. The note with it: time 0-60 min.
Series [5] can be described thus: Metabolic stability in human hepatocytes assessed as clearance at 1 uM measured per 10^6 cells and incubated upto 90 mins by LC-MS/MS analysis. The series is classed as ADME, cell-based, Hepatocyte. Conditions: read-out: CLH.
Series [6] in a line: In vivo antagonist activity at muscarinic M3 receptor in Dunkin-Hartley guinea pig trachea assessed as inhibition of acetylcholine-induced bronchoconstriction at 3 nmol/Kg, IT(Intratracheal) measured after 1 hr in presence of ICI-118551 by Konzett-Roessler methodology relative to control. The class given is functional. Conditions: Cavia porcellus.
The nature of series [7]: Metabolic stability in rat lung S9 fraction assessed as half life at 1 uM measured after 0 to 60 mins in presence of NADPH by LC-MS/MS analysis. The class given is ADME, subcellular. Conditions: time 0-60 min.
Series [8] is described as follows: Protein binding in rat plasma assessed as unbound fraction at 5 uM measured after 4 hrs by LC-MS/MS analysis. The series is classed as ADME, cell-free.
Series [9] in a line: Protein binding in human plasma assessed as unbound fraction at 5 uM measured after 4 hrs by LC-MS/MS analysis. The series is classed as ADME, cell-free.
The test system of series [10] is Trachea. In words: Bifunctional antagonist activity at muscarinic M3 receptor /agonist activity at beta-2 adrenoceptor in Dunkin-Hartley guinea pig trachea assessed as inhibition of acetylcholine-induced bronchoconstriction at 3 nmol/Kg, IT(Intratracheal) measured after 24 hr by Konzett-Roessler methodology relative to control. The series is classed as functional. The note with it: Cavia porcellus.

In series [11] the test system is Trachea. In words: Bifunctional antagonist activity at muscarinic M3 receptor /agonist activity at beta-2 adrenoceptor in Dunkin-Hartley guinea pig trachea assessed as inhibition of acetylcholine-induced bronchoconstriction at 3 nmol/Kg, IT(Intratracheal) measured after 1 hr by Konzett-Roessler methodology relative to control. The series is classed as functional. Conditions: Cavia porcellus.

The nature of series [12]: Metabolic stability in human liver microsomes assessed as clearance at 1 uM measured per mg protein incubated upto 60 mins in presence of NADPH by LC-MS/MS analysis. The class given is ADME, Microsome. The note with it: read-out: CLH.
Series [13] in a line: Metabolic stability in Dunkin-Hartley guinea pig hepatocytes assessed as clearance at 1 uM measured per 10^6 cells and incubated upto 90 mins by LC-MS/MS analysis. The series is classed as ADME, cell-based, Cavia porcellus, Hepatocyte. Conditions: read-out: CLH.
Series [14] can be described thus: In vivo agonist activity at beta-2 adrenoceptor in Dunkin-Hartley guinea pig trachea assessed as inhibition of histamine-induced bronchoconstriction at 3 nmol/Kg, IT(Intratracheal) measured after 1 hr by Konzett-Roessler methodology relative to control. The series is classed as functional. Conditions: Cavia porcellus.
A short description of series [15]: In vivo antagonist activity at muscarinic M3 receptor in Dunkin-Hartley guinea pig trachea assessed as inhibition of acetylcholine-induced bronchoconstriction at 3 nmol/Kg, IT(Intratracheal) measured after 24 hr in presence of ICI-118551 by Konzett-Roessler methodology relative to control. The series is classed as functional. The note with it: Cavia porcellus.

A short description of series [16]: Metabolic stability in human lung S9 fraction assessed as half life at 1 uM measured after 0 to 60 mins in presence of NADPH by LC-MS/MS analysis. The series is classed as ADME, subcellular. The note with it: time 0-60 min.
The nature of series [17]: Metabolic stability in rat hepatocytes assessed as clearance at 1 uM measured per 10^6 cells and incubated upto 90 mins by LC-MS/MS analysis. The note with it: read-out: CLH. The series is classed as ADME, cell-based, Hepatocyte.
Series [18] is described as follows: Metabolic stability in rat liver microsomes assessed as clearance at 1 uM measured per mg protein incubated upto 60 mins in presence of NADPH by LC-MS/MS analysis. Conditions: read-out: CLH. The series is classed as ADME, Microsome.
Series [19] is described as follows: Efflux ratio of apparent permeability from basolateral to apical side over apical to basolateral side in human Caco-2 cells at 10 uM and measured after 2 hrs by LC-MS/MS analysis. The class given is ADME, cell-based.
A short description of series [20]: Apparent permeability across basolateral to apical side in human Caco-2 cells at 10 uM and measured after 2 hrs by LC-MS/MS analysis. The series is classed as ADME, cell-based.

For the molecule `O=C(N[C@@H](c1ccccc1)c1cccc(OCc2ccc(CCNC[C@H](O)c3ccc(O)c4[nH]c(=O)ccc34)cc2)c1)O[C@H]1CN2CCC1CC2` (racemic), the inhibition in vivo at 0.003 µmol/kg in series [1] amounted to 35%; in [6], 78%; with Trachea [10] it was 77%; in the series with Trachea [11], 91%; in series [14], 67%; in series [15], 54%. Also, in series [2], the Papp A→B at 2 h, 10 µM stood at 2 ×10⁻⁶ cm/s. Further, the Fu in series [3] is 99%; in series [8], 98%; in series [9] it was 98%. The half-life at 1 µM in [4] was 1.17 h; in series [7], 3.33 h; in series [16], 3.6 h. Also, the hepatocyte CLint at 1 µM in series [5] was determined as 6 µL/min/1e6 cells; in series [13] it was 17 µL/min/1e6 cells; in series [17] it was 25 µL/min/1e6 cells. Further, the microsomal CLint at 1 µM in series [12] turned out to be 16 µL/min/mg; in series [18], 10 µL/min/mg. Besides, the efflux ratio at 2 h, 10 µM in [19] came to 1.5. For the same molecule, the Papp B→A at 2 h, 10 µM in [20] turned out to be 3.1 ×10⁻⁶ cm/s.
